ChEMBL document CHEMBL5584309, “Discovery of Novel Mcl-1 Inhibitors with a 3-Substituted-1H-indole-1-yl Moiety Binding to the P1-P3 Pockets to Induce Apoptosis in Acute Myeloid Leukemia Cells” (J Med Chem, 2024)

Key:
[1] = biological target: T1, Induced myeloid leukemia cell differentiation protein Mcl-1 (Homo sapiens, UniProt Q07820); experiment: Binding affinity to Mcl-1 (unknown origin) pre-incubated for 30 mins followed by addition FAM-peptide further incubated for 20 mins by fluorescence polarization-based binding assay
[2] = tested on: HL-60; experiment: Antiproliferative activity against human HL-60 cells assessed as growth inhibition measured after 72 hrs by CCK-8 assay; type: functional, cell-based; details: HL-60, 72 h
[3] = biological target: Apoptosis regulator Bcl-2 (Homo sapiens, UniProt P10415); experiment: Binding affinity to Bcl-2 (unknown origin) pre-incubated for 30 mins followed by addition FAM-peptide further incubated for 20 mins by fluorescence polarization-based binding assay
[4] = biological target: Bcl-2-like protein 1 (Homo sapiens, UniProt Q07817); experiment: Binding affinity to Bcl-xL (unknown origin) pre-incubated for 30 mins followed by addition FAM-peptide further incubated for 20 mins by fluorescence polarization-based binding assay
[5] = biological target: T2, Bcl-2-related protein A1 (Homo sapiens, UniProt Q16548); experiment: Binding affinity to Bfl-1 (unknown origin) pre-incubated for 30 mins followed by addition FAM-peptide further incubated for 20 mins by fluorescence polarization-based binding assay
T2 sequence (Q16548 whole entry): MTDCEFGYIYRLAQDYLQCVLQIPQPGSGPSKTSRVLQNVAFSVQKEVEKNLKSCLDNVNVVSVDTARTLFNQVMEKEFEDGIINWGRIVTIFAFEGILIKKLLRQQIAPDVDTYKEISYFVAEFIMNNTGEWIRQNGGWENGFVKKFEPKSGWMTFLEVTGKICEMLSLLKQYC

[6] = biological target: T1, Induced myeloid leukemia cell differentiation protein Mcl-1; experiment: Binding affinity to human MCL-1 measured by competition against fluorescently labelled BH3 - Bid measured after 6 hrs by fluorescent polarization assay
[7] = Metabolic stability in rat liver microsomes assessed as half life by LC-MS/MS analysis; type: ADME, Microsome; details: liver microsomes

Bcl-2-like protein 1, sequence (Q07817 whole entry): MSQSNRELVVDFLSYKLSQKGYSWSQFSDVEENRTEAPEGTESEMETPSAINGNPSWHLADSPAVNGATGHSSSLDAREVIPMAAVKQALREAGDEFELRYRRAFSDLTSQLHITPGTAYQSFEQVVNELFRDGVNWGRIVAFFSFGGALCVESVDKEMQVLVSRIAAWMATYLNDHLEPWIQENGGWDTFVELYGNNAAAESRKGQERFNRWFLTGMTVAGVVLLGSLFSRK
T1 sequence (Q07820 whole entry): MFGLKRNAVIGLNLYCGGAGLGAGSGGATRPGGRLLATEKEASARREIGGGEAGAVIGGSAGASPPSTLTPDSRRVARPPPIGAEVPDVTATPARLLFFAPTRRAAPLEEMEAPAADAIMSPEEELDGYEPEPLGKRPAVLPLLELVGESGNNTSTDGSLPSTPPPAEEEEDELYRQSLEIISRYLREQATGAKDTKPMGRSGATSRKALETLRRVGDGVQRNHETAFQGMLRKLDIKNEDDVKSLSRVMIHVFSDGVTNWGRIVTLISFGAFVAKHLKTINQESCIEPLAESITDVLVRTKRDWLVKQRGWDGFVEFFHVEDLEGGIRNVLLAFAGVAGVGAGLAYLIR
Apoptosis regulator Bcl-2, sequence (P10415 whole entry): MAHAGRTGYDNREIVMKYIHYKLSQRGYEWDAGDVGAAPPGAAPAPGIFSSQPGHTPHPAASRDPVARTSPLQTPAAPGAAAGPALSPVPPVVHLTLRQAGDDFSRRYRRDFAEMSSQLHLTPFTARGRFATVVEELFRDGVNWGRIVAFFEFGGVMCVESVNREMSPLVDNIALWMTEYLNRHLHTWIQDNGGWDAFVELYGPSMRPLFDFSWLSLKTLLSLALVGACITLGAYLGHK

| Ki ([1]; read-out: Ki) [µM] | IC50 [2] [µM] | Structure (SMILES) | other results |
| --- | --- | --- | --- |
| 0.068 | 16.8 | Cc1cc(OCCCc2c(C(=O)O)n(CCN3CCOCC3)c3c(-c4ccccc4Cn4cc(CCNC(=O)c5ccccc5Br)c5ccccc54)cccc23)cc(C)c1Cl |  |
| 0.045 | 7.58 | Cc1cc(OCCCc2c(C(=O)O)n(CCN3CCOCC3)c3c(-c4ccccc4Cn4cc(CCNC(=O)c5ccc(Cl)cc5)c5ccccc54)cccc23)cc(C)c1Cl | IC50 [3]: > 100 µM; IC50 [4]: > 100 µM; IC50 [5]: > 10 µM |
| 0.53 | 28 | COc1ccc(CN(C)C(=O)c2nn(C)c(COc3ccc(OC)cc3)c2-c2cccc3c(CCCOc4cc(C)c(Cl)c(C)c4)c(C(=O)O)[nH]c23)cc1 |  |
| 0.39 | 28.3 | COc1ccc(OCc2c(-c3cccc4c(CCCOc5cc(C)c(Cl)c(C)c5)c(C(=O)O)[nH]c34)c(C(=O)Nc3ccccc3F)nn2C)cc1 |  |
|  | > 50 | Cc1cc(OCCCc2c(C(=O)O)n(CCN3CCOCC3)c3c(-c4ccccc4Cn4cc(CCNC(=O)/C=C/c5ccc(Cl)c(Cl)c5)c5ccccc54)cccc23)cc(C)c1Cl | Ki [1]: Not Active |
|  |  | CC1(C)CC[C@@H](OC(=O)/C=C/c2ccccc2)C2C(C=O)C(C=O)C[C@H](O)[C@H]21 (some centres not stated) | Ki [6]: 0.3 µM |
| 0.058 | 29.9 | Cc1cc(OCCCc2c(C(=O)O)n(CCN3CCOCC3)c3c(-c4ccccc4Cn4cc(CCNC(=O)c5ccoc5)c5ccccc54)cccc23)cc(C)c1Cl |  |
| 0.15 | 16.1 | COc1ccc2c(ccn2Cc2ccccc2-c2cccc3c(CCCOc4cc(C)c(Cl)c(C)c4)c(C(=O)O)n(CCN4CCOCC4)c23)c1 |  |
| 0.056 | 14.3 | Cc1cc(OCCCc2c(C(=O)O)n(CCN3CCOCC3)c3c(-c4ccccc4Cn4cc(CCNC(=O)c5ccccc5C(F)(F)F)c5ccccc54)cccc23)cc(C)c1Cl |  |
|  | > 50 | Cc1cc(OCCCc2c(C(=O)O)[nH]c3ccccc23)cc(C)c1Cl |  |
| 0.65 | 31.9 | Cc1cc(OCCCc2c(C(=O)O)[nH]c3c(-c4ccccc4CN(C)c4ccccc4)cccc23)cc(C)c1Cl |  |
| 0.12 | 15.1 | Cc1cc(OCCCc2c(C(=O)O)n(CCN3CCOCC3)c3c(-c4ccccc4Cn4ccc5c(C)cccc54)cccc23)cc(C)c1Cl |  |
| 0.048 | 8.91 | Cc1cc(OCCCc2c(C(=O)O)n(CCN3CCOCC3)c3c(-c4ccccc4Cn4cc(CCNS(=O)(=O)c5ccc(F)cc5)c5ccccc54)cccc23)cc(C)c1Cl |  |
| 0.12 | 28.4 | Cc1cc(OCCCc2c(C(=O)O)n(CCN3CCOCC3)c3c(-c4ccccc4Cn4cc(CCNC(=O)c5ccncn5)c5ccccc54)cccc23)cc(C)c1Cl |  |
| 0.051 | 30.7 | Cc1cc(OCCCc2c(C(=O)O)n(CCN3CCOCC3)c3c(-c4ccccc4Cn4cc(CCNC(=O)c5ccc(Br)cc5)c5ccccc54)cccc23)cc(C)c1Cl |  |
| 0.16 | 39.1 | Cc1ccc2c(ccn2Cc2ccccc2-c2cccc3c(CCCOc4cc(C)c(Cl)c(C)c4)c(C(=O)O)n(CCN4CCOCC4)c23)c1 |  |
| 0.34 | 47.8 | Cc1cc(OCCCc2c(C(=O)O)[nH]c3c(-c4c(C(=O)NCC5CC5)nn(C)c4COc4ccccc4)cccc23)cc(C)c1Cl |  |
| 0.043 | 14.2 | Cc1cc(OCCCc2c(C(=O)O)n(CCN3CCOCC3)c3c(-c4ccccc4Cn4cc(CCNC(=O)c5c(C)cccc5F)c5ccccc54)cccc23)cc(C)c1Cl |  |
| 0.84 | 21.1 | COc1ccc(OCc2c(-c3cccc4c(CCCOc5cc(C)c(Cl)c(C)c5)c(C(=O)O)[nH]c34)c(C(=O)NC3CCOCC3)nn2C)cc1 |  |
| 0.037 | 7.96 | Cc1cc(OCCCc2c(C(=O)O)n(CCN3CCOCC3)c3c(-c4ccccc4Cn4cc(CCNC(=O)c5ccc(F)cc5)c5ccccc54)cccc23)cc(C)c1Cl | IC50 [3]: > 100 µM; IC50 [4]: > 100 µM; IC50 [5]: > 10 µM |
| 0.055 | 12.6 | Cc1cc(OCCCc2c(C(=O)O)n(CCN3CCOCC3)c3c(-c4ccccc4Cn4cc(CCNC(=O)c5ccncc5F)c5ccccc54)cccc23)cc(C)c1Cl |  |
| 0.1 | 10.5 | Cc1cc(OCCCc2c(C(=O)O)[nH]c3c(-c4c(C(=O)NCC5CC5)nn(C)c4Cn4cc(C)c5ccccc54)cccc23)cc(C)c1Cl |  |
| 0.15 | 19.3 | Cc1cc(OCCCc2c(C(=O)O)[nH]c3c(-c4c(C(=O)NCC5CC5)nn(C)c4Cn4cc(CCNC(=O)OC(C)(C)C)c5ccccc54)cccc23)cc(C)c1Cl |  |

| Ki ([1]; read-out: Ki) [µM] | IC50 [2] [µM] | Structure (SMILES) | other results |
| --- | --- | --- | --- |
| 0.18 | 34.9 | Cc1cc(OCCCc2c(C(=O)O)[nH]c3c(-c4c(C(=O)NCC5CC5)nn(C)c4COc4ccc(C=O)cc4)cccc23)cc(C)c1Cl |  |
| 0.098 | 12.8 | Cc1cc(OCCCc2c(C(=O)O)n(CCN3CCOCC3)c3c(-c4ccccc4Cn4cc(CCNC(=O)CCC(F)(F)F)c5ccccc54)cccc23)cc(C)c1Cl |  |
| 0.26 | 32.2 | Cc1cc(OCCCc2c(C(=O)O)[nH]c3c(-c4c(C(=O)NCC5CC5)nn(C)c4COc4ccc(OC(F)(F)F)cc4)cccc23)cc(C)c1Cl |  |
| 1.2 | > 50 | Cc1cc(OCCCc2c(C(=O)O)n(CCN3CCOCC3)c3c(-c4ccccc4Cn4cc(CCNCC(N)=O)c5ccccc54)cccc23)cc(C)c1Cl |  |
| 0.15 | 8.82 | Cc1ccc2c(ccn2Cc2c(-c3cccc4c(CCCOc5cc(C)c(Cl)c(C)c5)c(C(=O)O)[nH]c34)c(C(=O)NCC3CC3)nn2C)c1 |  |
| 0.22 | 30.5 | COc1ccc(OCc2c(-c3cccc4c(CCCOc5cc(C)c(Cl)c(C)c5)c(C(=O)O)[nH]c34)c(C(=O)NCC3CC3)nn2C)cc1 |  |
| 0.49 | 35 | COc1ccc(OCc2c(-c3cccc4c(CCCOc5cc(C)c(Cl)c(C)c5)c(C(=O)O)[nH]c34)c(C(=O)NCC3CCOCC3)nn2C)cc1 |  |
| 0.15 | 21.2 | Cc1cc(OCCCc2c(C(=O)O)n(CCN3CCOCC3)c3c(-c4ccccc4Cn4ccc5ccccc54)cccc23)cc(C)c1Cl |  |
| 0.24 | 28.8 | COc1ccccc1OCc1c(-c2cccc3c(CCCOc4cc(C)c(Cl)c(C)c4)c(C(=O)O)[nH]c23)c(C(=O)NCC2CC2)nn1C |  |
| 0.089 | 15.7 | Cc1cc(OCCCc2c(C(=O)O)n(CCN3CCOCC3)c3c(-c4ccccc4Cn4cc(C)c5ccccc54)cccc23)cc(C)c1Cl |  |
| 0.37 | > 50 | COc1cccc(OCc2c(-c3cccc4c(CCCOc5cc(C)c(Cl)c(C)c5)c(C(=O)O)[nH]c34)c(C(=O)NCC3CC3)nn2C)c1 |  |
| 0.19 | 31.6 | C=CC(=O)NCCc1cn(Cc2ccccc2-c2cccc3c(CCCOc4cc(C)c(Cl)c(C)c4)c(C(=O)O)n(CCN4CCOCC4)c23)c2ccccc12 |  |
| 0.24 | 44.1 | Cc1cc(OCCCc2c(C(=O)O)[nH]c3c(-c4ccccc4Cn4ccc5ccccc54)cccc23)cc(C)c1Cl |  |
| 0.059 | 10.1 | Cc1ccccc1C(=O)NCCc1cn(Cc2ccccc2-c2cccc3c(CCCOc4cc(C)c(Cl)c(C)c4)c(C(=O)O)n(CCN4CCOCC4)c23)c2ccccc12 |  |
| 0.029 | 7.92 | Cc1cc(OCCCc2c(C(=O)O)n(CCN3CCOCC3)c3c(-c4ccccc4Cn4cc(CCNC(=O)c5ccc(OC(F)(F)F)cc5)c5ccccc54)cccc23)cc(C)c1Cl | IC50 [3]: > 100 µM; IC50 [4]: > 100 µM; IC50 [5]: > 10 µM |
|  |  | CC(C)=CCC[C@]1(C)C=Cc2c(O)c3c(c(CC=C(C)C)c2O1)O[C@]12C(=C[C@@H]4C[C@H]1C(C)(C)O[C@@]2(C/C=C(/C)C(=O)O)C4=O)C3=O [GAMBOGIC ACID] | IC50 [3]: 0.16 µM; IC50 [4]: 0.5 µM; IC50 [5]: 0.5 µM |
|  |  | O=C(O)Cc1ccccc1Nc1c(Cl)cccc1Cl [DICLOFENAC] | half-life [7]: 11.7 min |
| 0.027 | 35.1 | Cc1cc(OCCCc2c(C(=O)O)n(CCN3CCOCC3)c3c(-c4ccccc4Cn4cc(CCNC(=O)c5ccc(C=O)cc5)c5ccccc54)cccc23)cc(C)c1Cl |  |
| 0.06 | 18.3 | Cc1cc(OCCCc2c(C(=O)O)n(CCN3CCOCC3)c3c(-c4ccccc4Cn4cc(CCNC(=O)CC(F)(F)F)c5ccccc54)cccc23)cc(C)c1Cl |  |
| 0.26 | > 50 | COc1ccc(OCc2c(-c3cccc4c(CCCOc5cc(C)c(Cl)c(C)c5)c(C(=O)O)[nH]c34)c(C(=O)N(C)CCNC(=O)OC(C)(C)C)nn2C)cc1 |  |
| 0.087 | 12.3 | Cc1cc(OCCCc2c(C(=O)O)n(CCN3CCOCC3)c3c(-c4ccccc4Cn4cc(CCNC(=O)c5cccc(Br)c5)c5ccccc54)cccc23)cc(C)c1Cl |  |
| 0.095 | 14.1 | COc1cccc2c1ccn2Cc1ccccc1-c1cccc2c(CCCOc3cc(C)c(Cl)c(C)c3)c(C(=O)O)n(CCN3CCOCC3)c12 |  |
